System: patients after acute myocardial infarction
Assay: Life quality, Seattle Angina Questionnaire (SAQ), same clinical trial
Type: in vivo, human
Details: 3 months after treatment
Description: 3508 patients who were in accordance with the diagnostic standards of AMI for 28 days to 2 years and differentiated as Qi deficiency and blood stagnation syndrome by TCM were studied. 0.5 g Chinese medicine composition prepared by the method of EXAMPLE 1 (Coded as QSYQ) was administrated half an hour after meal, 3 times per day.
There were 19 questions in the Seattle angina questionnaire (SAQ), including 5 parts: physical limitation (PL), anginal stability (AS), anginal frequency (AF), treatment satisfaction (TS) and disease perception (DP). After being given necessary explanation by doctors, the questions were answered independently by patients.
They included the overall survival time, angina pectoris score, TCM symptom score and life quality score, where angina pectoris score, TCM symptom score and life quality score were evaluated at randomization, in 1st, 3rd, 6th, 9th, 12th month after treatment and 18th month after follow-up.
All evaluation results of SAQ were described during the period of observation, and Wilcoxon rank sum test was used for inter-group comparison.
The evaluation results in the SAQ were depicted in different observations, and inter-group comparison was tested by Wilcoxon Rank-sum test.

CC(=O)Oc1ccccc1C(=O)O [Control group, aspirine]
SAQ 3rd question: <1 time per week, % of cases (FAS): (21.15%)
SAQ 3rd question: <1 time per week, cases (FAS): 368
SAQ 3rd question: No onset, % of cases (FAS): (0.00%)
SAQ 3rd question: No onset, cases (FAS): 0
SAQ 3rd question: ≧3 times per week, % of cases (FAS): (42.13%)
SAQ 3rd question: ≧3 times per week, cases (FAS): 733
SAQ 3rd question: ≧4 times per day, % of cases (FAS): (0.92%)
SAQ 3rd question: ≧4 times per day, cases (FAS): 16
SAQ Question 1-3: Mildly limited, number of patients (FAS): 93
SAQ Question 1-3: Mildly limited, percent of patients (FAS): (5.33%)
SAQ Question 1-3: Moderately limited, number of patients (FAS): 23
SAQ Question 1-3: Moderately limited, percent of patients (FAS): (1.32%)
SAQ Question 1-3: Not limited, number of patients (FAS): 1318
SAQ Question 1-3: Not limited, percent of patients (FAS): (75.57%)
SAQ Question 1-3: Other reason, number of patients (FAS): 9
SAQ Question 1-3: Other reason, percent of patients (FAS): (0.52%)
SAQ Question 1-3: Severely limited, number of patients (FAS): 5
SAQ Question 1-3: Severely limited, percent of patients (FAS): (0.29%)
SAQ Question 1-3: Slightly limited, number of patients (FAS): 296
SAQ Question 1-3: Slightly limited, percent of patients (FAS): (16.97%)
SAQ Question 1-4: Mildly limited, number of patients (FAS): 325
SAQ Question 1-4: Mildly limited, percent of patients (FAS): (18.65%)
SAQ Question 1-4: Moderately limited, number of patients (FAS): 120
SAQ Question 1-4: Moderately limited, percent of patients (FAS): (6.88%)
SAQ Question 1-4: Not limited, number of patients (FAS): 668
SAQ Question 1-4: Not limited, percent of patients (FAS): (38.32%)
SAQ Question 1-4: Other limited, number of patients (FAS): 12
SAQ Question 1-4: Other limited, percent of patients (FAS): (0.69%)
SAQ Question 1-4: Severely limited, number of patients (FAS): 29
SAQ Question 1-4: Severely limited, percent of patients (FAS): (1.66%)
SAQ Question 1-4: Slightly limited, number of patients (FAS): 589
SAQ Question 1-4: Slightly limited, percent of patients (FAS): (33.79%)
SAQ Question 1-5: Mildly limited, number of patients (FAS): 311
SAQ Question 1-5: Mildly limited, percent of patients (FAS): (17.84%)
SAQ Question 1-5: Moderately limited, number of patients (FAS): 162
SAQ Question 1-5: Moderately limited, percent of patients (FAS): (9.29%)
SAQ Question 1-5: Not limited, number of patients (FAS): 709
SAQ Question 1-5: Not limited, percent of patients (FAS): (40.68%)
SAQ Question 1-5: Other reasons, number of patients (FAS): 12
SAQ Question 1-5: Other reasons, percent of patients (FAS): (0.69%)
SAQ Question 1-5: Severely limited, number of patients (FAS): 21
SAQ Question 1-5: Severely limited, percent of patients (FAS): (1.20%)
SAQ Question 1-5: Slightly limited, number of patients (FAS): 528
SAQ Question 1-5: Slightly limited, percent of patients (FAS): (30.29%)
SAQ Question 1-9: Mildly limited, % of cases (FAS): (18.63%)
SAQ Question 1-9: Mildly limited, cases (FAS): 318
SAQ Question 1-9: Moderately limited, % of cases (FAS): (20.04%)
SAQ Question 1-9: Moderately limited, cases (FAS): 342
SAQ Question 1-9: Not limited, % of cases (FAS): (3.57%)
SAQ Question 1-9: Not limited, cases (FAS): 61
SAQ Question 1-9: Other reaons, % of cases (FAS): (5.98%)
SAQ Question 1-9: Other reaons, cases (FAS): 102
SAQ Question 1-9: Severely limited, % of cases (FAS): (38.90%)
SAQ Question 1-9: Severely limited, cases (FAS): 664
SAQ Question 1-9: Slightly limited, % of cases (FAS): (12.89%)
SAQ Question 1-9: Slightly limited, cases (FAS): 220
SAQ 2nd question: Clearly increased, % of cases (PP): (0.41%)
SAQ 2nd question: Clearly increased, cases (PP): 6
SAQ 2nd question: Clearly reduced, % of cases (PP): (22.01%)
SAQ 2nd question: Clearly reduced, cases (PP): 322
SAQ 2nd question: Same, % of cases (PP): (41.97%)
SAQ 2nd question: Same, cases (PP): 614
SAQ 2nd question: Slightly increased, % of cases (PP): (3.42%)
SAQ 2nd question: Slightly increased, cases (PP): 50
SAQ 2nd question: Slightly reduced, % of cases (PP): (32.19%)
SAQ 2nd question: Slightly reduced, cases (PP): 471
SAQ 3rd question: 1-2 times per week, % of cases (PP): (32.19%)
SAQ 3rd question: 1-2 times per week, cases (PP): 471
SAQ 3rd question: 1-3 times per day, % of cases (PP): (3.42%)
SAQ 3rd question: 1-3 times per day, cases (PP): 50
SAQ 3rd question: <1 time per week, % of cases (PP): (22.01%)
SAQ 3rd question: <1 time per week, cases (PP): 322
SAQ 3rd question: No onset, % of cases (PP): (0.00%)
SAQ 3rd question: No onset, cases (PP): 0
SAQ 3rd question: ≧3 times per week, % of cases (PP): (41.97%)
SAQ 3rd question: ≧3 times per week, cases (PP): 614
SAQ 3rd question: ≧4 times per day, % of cases (PP): (0.41%)

Source: patent publication US9211310B2, “Use of a Chinese medicine composition in preparing medicaments for treating secondary prevention of myocardial infarction” (TASLY PHARMACEUTICAL GROUP CO., LTD, priority 2010, dated 2015)
